Source: US20240150339A1, “Compounds and Their Use as PDE4 Activators” (Mironid Limited, priority 2021, published 2024)

Key:
m-IMCD3 cells = assay: Inhibition of PGE2-stimulated in vitro cyst formation in 3D culture of m-IMCD3 cells; format: cell-based, mouse; details: Mus musculus, mIMCD3, 144 h; 10 μM test compound; mean cyst area (%) compared to 100% for (DMSO + PGE2) and 0% for DMSO control; 100 nM PGE2; 6 days; read-out: % Cyst area after incubation with 10 μM test compound
In short: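 Mouse m-IMCD3 cells grown in 3D collagen I/Matrigel gels. From 18-24 h after plating, compound (0.1% DMSO) plus 100 nM PGE2 were added and replenished at 2-3 days. After 6 days, imaging gave mean cyst area, scaled to 100% for DMSO+PGE2 and 0% for DMSO alone.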

PDE4D5 = biological target: T1, PDE4D5 (Homo sapiens, UniProt Q08499); assay: PDE assay, activation of full-length human PDE4D5 long form ([3H]cAMP radio-assay); format: biochemical; details: 30 μM test compound; mean % increase in counts over basal activity
T1 construct: Using Full-Length Human PDE4 Isoforms: Long Forms PDE4D5, PDE4C3, PDE4B1 and Short Form PDE4B2; made in house; cytosol fraction of the cell lysate, not purified
Text: (§1) Experiment 1: Measurement of Modulation of Enzyme Activity by PDE4 Long Form Activators of the Present Invention Using Full-Length Human PDE4 Isoforms: Long Forms PDE4D5, PDE4C3, PDE4B1 and Short Form PDE4B2
(§2) (Marchmont, R. J. and Houslay, M. D. Biochem. J. 187: 381-92, 1980)
(§3) For transient transfection of exogenous PDE4 long isoforms, HEK 293 cells were transfected with pcDNA3.1 or pDEST™ PDE4 expression vectors using Lipofectamine LTX/Plus reagent (Invitrogen) as outlined by the manufacturer.
(§4) Where stable cell lines were generated the clonal isolates were expanded to obtain cell lines that stably expressed the full-length human PDE4 long isoforms and the full length human PDE4B2 short isoform. These were called the HEK-PDE4D5, HEK-PDE4B1 and HEK-PDE4B2 cell lines, respectively.
(§5) HEK-PDE4D5 cells were seeded out in 100 mm plates and incubated at 37° C. in an atmosphere of 5% CO2, 95% air. Cell lysates were prepared using KHEM buffer [50 mM KCl, 10 mM EGTA, 50 mM HEPES (pH 7.2), 1.92 mM MgCl2].
(§6) To prepare the cell lysates, the 100 mm plates containing the cells were placed on ice and washed with ice-cold PBS (phosphate buffered saline, pH 7.4). KHEM buffer (500 μl) was added to the cells. Cells were then scraped off the plate and triturated using a needle (BD Microlance™ 0.8, 40 mm). The lysed cells were then centrifuged at 2000 rpm for 10 minutes to remove cell debris and the supernatant (cell lysate containing recombinant PDE4D5) was transferred to a fresh tube and kept on ice.
(§7) The cell lysate containing recombinant PDE4D5 was transferred into a centrifuge tube and placed into an ultracentrifuge (BECKMAN COULTER) and spun at high speed (100,000 g) for 30 minutes at 4° C. The cytosol fraction was then collected and its protein amount determined using a BCA protein assay.
(§8) PDE assays were performed in thin walled V-bottomed 96-well plates. The assays were performed at a final concentration of 10 mM Tris/5 mM MgCl2 μlus PDE4D5 cell lysate cytosol fraction, containing over-expressed PDE4D5, with and without test compound. The lysate/compound mix were incubated together for 15 min at room temperature on an orbital shaker prior to addition of [^3H] cAMP (final concentration 1 μM [^3H] cAMP; Perkin Elmer) to a final volume of 50 μl per reaction. The reactions were then incubated for 10 minutes at 30° C., terminated by heating for 2 min at 95° C. and allowed to cool. Snake venom (12.5 μl of 1 mg/ml; Crotalus atrox, Sigma) was then added and the plates were agitated and incubated for a further 15 minutes at 30° C. Dowex ion exchange resin (Sigma, chloride form, 200-400 mesh; 200 μl; prepared as a 1:1 Dowex: water stock, thoroughly re-suspended and diluted 2:1 with ethanol) was then added to each well and the plates incubated for 15 min at room temperature on an orbital shaker ensuring sufficient agitation for resin suspension (550 RPM). The reaction mixture was then transferred to a 96 well filter plate (Millipore; […] pore size) and filtered into a receiving 96-well plate to remove the dowex suspension. 30 μL of the filtered solution was then transferred to the wells of an Opti-plate (Perkin Elmer) 96 well assay plate and 120 μl of Microscint 40 scintillation fluid was added. The plate was then placed on an orbital shaker for 10 min at high speed (900 RPM) to mix the sample with scintillation fluid prior to quantitation using a plate based scintillation counter (Top-Count).
(§9) The % increase in counts in the presence of test compound at a particular concentration indicates the % increase in enzyme activity at that concentration.

PDE4C3 = biological target: T2, PDE4C3 (Homo sapiens, UniProt Q08493); assay: PDE assay, activation of full-length human PDE4C3 long form ([3H]cAMP radio-assay); format: biochemical; details: 30 μM test compound; mean % increase in counts over basal activity
T2 construct: Using Full-Length Human PDE4 Isoforms: Long Forms PDE4D5, PDE4C3, PDE4B1 and Short Form PDE4B2; made in house; host or cells: HEK 293 transfected with pcDNA3.1 or pDEST PDE4 expression vector; cytosol fraction of the lysate by analogy to PDE4D5
Text: as §1, §2
For transient transfection of exogenous PDE4 long isoforms, HEK 293 cells were transfected with pcDNA3.1 or pDEST™ PDE4 expression vectors using Lipofectamine LTX/Plus reagent (Invitrogen) as outlined by the manufacturer. […]
as §5, §6, §7, §8, §9

PDE4B2 = biological target: T3, PDE4B2 (Homo sapiens, UniProt Q07343); assay: PDE assay, activity of full-length human PDE4B2 short form ([3H]cAMP radio-assay); format: biochemical; details: 30 μM test compound; mean % increase in counts over basal activity
T3 construct: the full length human PDE4B2 short isoform; made in house; cytosol fraction of the lysate by analogy to PDE4D5
Text: as §1, §2, §3, §4, §5, §6, §7, §8, §9

MDCK cells = assay: Inhibition of PGE2-stimulated in vitro cyst formation in 3D culture of MDCK cells; format: cell-based; details: total cyst area (%) compared to 100% for (DMSO + PGE2) and 0% for DMSO control, 300 nM PGE2
Description: HEK 293 and MDCK cells (Public Health England, Cell Culture Collections) were maintained in Dulbecco's Modified Eagle's Medium (DMEM) supplemented with 10% (v/v) fetal bovine serum (FBS) (Seralab), 2 mM L-glutamine and 100 U/ml penicillin streptomycin cocktail (ThermoFisher); termed complete media. Clonal HEK 293 cell lines were maintained in complete media supplemented with 0.6 mg/mL G418 (Enzo Life Sciences). Mouse inner medullary collecting duct (m-IMCD3) cells [American Type Culture Collection (ATCC)] were maintained in media consisting of DMEM/Hams F-12 50/50 Mix (DMEM F12; Corning) supplemented with penicillin streptomycin cocktail (100 U/ml) and FBS (10% v/v) (DMEM F12-10% FBS).
In this study, the well-established three-dimensional (3D) MDCK cell model is used to investigate the effects of PDE4 long form activators on the formation of kidney cysts and evaluate their potential in the treatment of polycystic kidney diseases. 3D cysts are generated based on the method of Mao et al. (Mao, Z., Streets, A. J., Ong, A. C. M. Am. J. Physiol. Renal Physiol. 300 (6): F1375-F1384, 2011), with some modifications.
The assay is conducted in the wells of a 96-well plate culture dish using a total volume of 130 μl of collagen suspension in growth media for each matrix plug per individual well. Rat Collagen I (Fisher Scientific) is prepared on ice by neutralising with 1M NaOH and diluting with a 2×volume of DMEM-2% FBS. 30 μl of collagen/Media mix is added into the well of a 96 well plate and the collagen is set to a gel by incubating at 37° C. for at least 15 minutes. A second layer of 100 μl collagen/Matrigel suspension containing MDCK cells (1.0×10^4 MDCK cells per well) is then layered over the first layer and the collagen/cell mix again set to a gel by incubating at 37° C. 100 μl DMEM growth media is added and cells are incubated at 37° C. for 24 hours. 24 hours after cell seeding, DMEM-2% FBS is added along with the test compound indicated in the presence of 300 nM prostaglandin E2 (PGE2) (Sigma Aldrich) in quadruplicate wells per condition. Media, together with the test compound and PGE2 are replenished every 3 days for 10-15 days.
After 10-15 days of culture z stack images of the wells are captured using the Nikon Eclipse Ti2-E microscope. Nikon General Analysis software is used to measure the following parameters in each well: the mean cyst area, the number of cysts, and the total cyst area.
PDE4 long form activators inhibited in vitro cyst formation in MDCK cells. Data are shown in Table 6 as total cyst area (%), compared to 100% for (DMSO+PGE2) and 0% for DMSO control.

T1 sequence (Q08499 1-745 isoform Q08499-6): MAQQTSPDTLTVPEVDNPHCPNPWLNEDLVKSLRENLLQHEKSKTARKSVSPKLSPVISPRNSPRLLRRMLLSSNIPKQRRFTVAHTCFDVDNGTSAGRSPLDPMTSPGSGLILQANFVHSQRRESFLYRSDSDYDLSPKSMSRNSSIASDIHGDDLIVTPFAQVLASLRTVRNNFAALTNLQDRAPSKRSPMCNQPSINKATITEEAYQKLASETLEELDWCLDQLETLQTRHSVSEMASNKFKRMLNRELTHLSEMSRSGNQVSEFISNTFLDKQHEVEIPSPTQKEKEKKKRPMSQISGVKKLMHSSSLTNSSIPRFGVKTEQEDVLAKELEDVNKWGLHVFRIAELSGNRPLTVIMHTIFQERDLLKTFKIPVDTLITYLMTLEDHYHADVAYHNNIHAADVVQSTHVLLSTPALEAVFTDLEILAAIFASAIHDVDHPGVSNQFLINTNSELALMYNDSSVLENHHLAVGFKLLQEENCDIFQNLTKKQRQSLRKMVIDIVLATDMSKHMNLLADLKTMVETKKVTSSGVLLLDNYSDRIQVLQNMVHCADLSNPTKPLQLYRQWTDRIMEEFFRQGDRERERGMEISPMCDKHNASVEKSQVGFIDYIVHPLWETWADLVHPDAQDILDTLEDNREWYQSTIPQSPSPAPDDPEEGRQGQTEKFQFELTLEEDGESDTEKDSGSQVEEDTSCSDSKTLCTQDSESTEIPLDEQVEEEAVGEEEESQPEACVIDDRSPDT
T3 sequence (Q07343 1-564 isoform Q07343-2): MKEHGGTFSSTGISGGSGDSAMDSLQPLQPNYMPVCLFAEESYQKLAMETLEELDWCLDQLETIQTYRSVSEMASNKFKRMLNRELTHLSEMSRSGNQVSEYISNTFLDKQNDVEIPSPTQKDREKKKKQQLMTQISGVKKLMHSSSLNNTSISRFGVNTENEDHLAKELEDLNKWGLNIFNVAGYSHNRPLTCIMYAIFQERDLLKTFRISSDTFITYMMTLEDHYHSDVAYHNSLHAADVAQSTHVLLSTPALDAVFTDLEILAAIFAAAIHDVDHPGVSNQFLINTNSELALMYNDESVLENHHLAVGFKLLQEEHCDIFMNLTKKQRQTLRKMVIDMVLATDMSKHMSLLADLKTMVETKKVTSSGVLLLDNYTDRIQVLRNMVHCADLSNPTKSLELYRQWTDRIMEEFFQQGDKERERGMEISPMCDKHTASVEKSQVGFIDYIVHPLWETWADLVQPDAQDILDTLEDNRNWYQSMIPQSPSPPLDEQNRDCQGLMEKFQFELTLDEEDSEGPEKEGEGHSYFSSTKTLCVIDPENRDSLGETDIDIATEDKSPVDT
T2 sequence (Q08493 1-680 isoform Q08493-3): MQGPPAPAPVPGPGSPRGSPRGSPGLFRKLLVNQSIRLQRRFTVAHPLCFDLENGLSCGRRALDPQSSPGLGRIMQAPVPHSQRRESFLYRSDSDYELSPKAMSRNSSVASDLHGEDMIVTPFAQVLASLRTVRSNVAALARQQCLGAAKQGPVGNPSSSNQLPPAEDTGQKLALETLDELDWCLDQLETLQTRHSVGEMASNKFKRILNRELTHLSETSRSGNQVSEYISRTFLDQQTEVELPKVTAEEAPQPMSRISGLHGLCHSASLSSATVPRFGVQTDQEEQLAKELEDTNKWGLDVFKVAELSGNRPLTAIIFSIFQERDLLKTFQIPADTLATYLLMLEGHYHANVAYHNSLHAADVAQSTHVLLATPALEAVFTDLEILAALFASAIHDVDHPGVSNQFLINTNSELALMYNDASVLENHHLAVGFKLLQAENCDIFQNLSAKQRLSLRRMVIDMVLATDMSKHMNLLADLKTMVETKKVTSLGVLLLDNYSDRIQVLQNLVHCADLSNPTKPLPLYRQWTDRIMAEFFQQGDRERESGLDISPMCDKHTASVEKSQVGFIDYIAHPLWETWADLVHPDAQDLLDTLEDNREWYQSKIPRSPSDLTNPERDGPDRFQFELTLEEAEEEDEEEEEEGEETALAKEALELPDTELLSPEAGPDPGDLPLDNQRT

Q: Which results are given for `Cc1ccncc1-c1nc2ccc(C(=O)N[C@H]3CCOc4ccccc43)cc2s1` [Example 51, (S)-N-(chroman-4-yl)-2-(4-methylpyridin-3-yl)benzo[d]thiazole-6-carboxamide]?
A: activity at 10 µM (m-IMCD3 cells): -15%; activation at 30 µM (PDE4D5): 87%; activation at 30 µM (PDE4C3): 112%

Q: `CCN1CCN(c2nc3cc(C)c(C(=O)N[C@H]4CCOc5ccccc54)cc3s2)CC1` [Example 216, (S)-N-(chroman-4-yl)-2-(4-ethylpiperazin-1-yl)-5-methylbenzo[d]thiazole-6-carboxamide] was tested. Which “% increase in PDE4B2 activity at 30 μM*” value (PDE4B2) did it give?
A: −2%

Q: And the activity at 10 µM (m-IMCD3 cells)?
A: -5%

Q: What about the activation at 30 µM (PDE4D5) of the same molecule?
A: 88%

Q: What does the source list for `CCN1CC2CCC(C1)N2c1nc2ccc(S(=O)(=O)NC3CCC(F)(F)CC3)cc2s1` [Example 290, N-(4,4-difluorocyclohexyl)-2-(3-ethyl-3,8-diazabicyclo[3.2.1]octan-8-yl)benzo[d]thiazole-6-sulfonamide]?
A: % increase in PDE4B2 activity at 30 μM* (PDE4B2): 11%; activity at 10 µM (m-IMCD3 cells): 16%; activation at 30 µM (PDE4D5): 47%

Q: How did the “% Cyst area after incubation with 1 μM test compound” value (MDCK cells) turn out when `O=C(NC1CCC(F)(F)CC1)c1ccc2nc(N3CC4CCC(C3)N4)sc2c1` [Example 245, 2-(3,8-diazabicyclo[3.2.1]octan-3-yl)-N-(4,4-difluorocyclohexyl)-benzo[d]thiazole-6-carboxamide] was run?
A: 4%

Q: What does the source list for `Cc1ncccc1-c1nc2ccc(C(=O)N[C@H]3CCCc4ccccc43)cc2s1` [Example 6, (S)-2-(2-methylpyridin-3-yl)-N-(1,2,3,4-tetrahydronaphthalen-1-yl)benzo[d]thiazole-6-carboxamide]?
A: activity at 10 µM (m-IMCD3 cells): 7%; activation at 30 µM (PDE4C3): 38%

Q: What does the source list for `Cc1cncc(-c2nc3ccc(C(=O)NCc4ccc(F)cc4)cc3s2)c1` [Example 32, N-(4-fluorobenzyl)-2-(5-methylpyridin-3-yl)benzo[d]thiazole-6-carboxamide]?
A: activity at 10 µM (m-IMCD3 cells): 18%; activation at 30 µM (PDE4C3): 99%

Q: What does the source list for `Cc1ccncc1-c1nc2ccc(C(=O)N[C@H]3CCCc4ccccc43)cc2s1` [Example 50, (S)-2-(4-methylpyridin-3-yl)-N-(1,2,3,4-tetrahydronaphthalen-1-yl)benzo[d]thiazole-6-carboxamide]?
A: activity at 10 µM (m-IMCD3 cells): 11%; activation at 30 µM (PDE4D5): 51%; activation at 30 µM (PDE4C3): 58%

Q: Which “% increase in PDE4B2 activity at 30 μM*” value (PDE4B2) does the source give for `O=C(N[C@H]1CCOc2ccccc21)c1ccc2nc(-c3cccnc3)sc2c1` [Example 9, (S)-N-(chroman-4-yl)-2-(pyridin-3-yl)benzo[d]thiazole-6-carboxamide] here?
A: 3%

Q: And the activation at 30 µM (PDE4D5)?
A: 81%

Q: For `CCN1CCC(c2nc3c(C)cc(C(=O)N[C@H]4CCOc5ccccc54)cc3s2)CC1` [Example 187, (S)-N-(chroman-4-yl)-2-(1-ethylpiperidin-4-yl)-4-methylbenzo[d]thiazole-6-carboxamide], which “% increase in PDE4B2 activity at 30 μM*” value (PDE4B2) is on record?
A: 9%

Q: And the activation at 30 µM (PDE4D5)?
A: 31%

Q: Which results are given for `CCN1CCN(c2nc3ccc(C(=O)N[C@H]4CCOc5ccccc54)c(C)c3s2)CC1` [Example 220, (S)-N-(chroman-4-yl)-2-(4-ethylpiperazin-1-yl)-7-methylbenzo[d]thiazole-6-carboxamide]?
A: % increase in PDE4B2 activity at 30 μM* (PDE4B2): 0%; activation at 30 µM (PDE4D5): 36%

Q: How did the “% increase in PDE4B2 activity at 30 μM*” value (PDE4B2) turn out when `CCN1CCN(c2nc3c(C)cc(C(=O)N[C@H]4CCOc5ccccc54)cc3s2)CC1` [Example 212, (S)-N-(chroman-4-yl)-2-(4-ethylpiperazin-1-yl)-4-methylbenzo[d]thiazole-6-carboxamide] was run?
A: −3%

Q: What about the activation at 30 µM (PDE4D5) of the same molecule?
A: 30%

Q: For `CN1CCN(c2nc3ccc(C(=O)NC4CCCC4)cc3s2)CC12CC2` [Example 260, N-cyclopentyl-2-(4-methyl-4,7-diazaspiro[2.5]octan-7-yl)benzo[d]thiazole-6-carboxamide], which “% Cyst area after incubation with 1 μM test compound” value (MDCK cells) is on record?
A: 11%

Q: `O=C(N[C@H]1CCOc2ccccc21)c1ccc2nc(-c3cncc(Cl)c3)sc2c1` [Example 53, (S)-2-(5-chloropyridin-3-yl)-N-(chroman-4-yl)benzo[d]thiazole-6-carboxamide] was tested. Which activation at 30 µM (PDE4C3) did it give?
A: 46%

Q: With `COc1ccc(CNC(=O)c2ccc3nc(-c4cncc(C)c4)sc3c2)cc1` [Example 33, N-(4-methoxybenzyl)-2-(5-methylpyridin-3-yl)benzo[d]thiazole-6-carboxamide] as the molecule, how does the activation at 30 µM (PDE4C3) read?
A: 82%

Q: How did the activation at 30 µM (PDE4C3) turn out when `Cc1cncc(-c2nc3ccc(C(=O)NC4CCOCC4)cc3s2)c1` [Example 46, 2-(5-methylpyridin-3-yl)-N-(tetrahydro-2H-pyran-4-yl)benzo[d]thiazole-6-carboxamide] was run?
A: 71%

Q: How did the activation at 30 µM (PDE4C3) turn out when `Cc1cncc(-c2nc3ccc(C(=O)NC4CCCC4)cc3s2)c1` [Example 43, N-cyclopentyl-2-(5-methylpyridin-3-yl)benzo[d]thiazole-6-carboxamide] was run?
A: 68%
